Source: PMC7557242 (ACS Omega, 2020)
Read-outs that look alike come from different tables or passages of the source.

Key:
[1] = test system: SAs from different species; conditions: CSA versus HSA
[2] = test system: plasma protein; conditions: cited from earlier work
[3] = test system: human serum albumin; conditions: previous study, cited from earlier work
[4] = test system: serum albumin (SA); conditions: after intravenous injection, in most of the cases; cited from earlier work

CC(C)c1cccc(C(C)C)c1O [PR, 2,6-Diisopropylphenol]
difference between UC50 values [1]: 0.07 | % PPB (plasma protein binding) [2]: 96–98% | ΔGPBSA ([3]; PR1): -23.44 kcal/mol | ΔGPBSA ([3]; PR2): -19.03 kcal/mol | PR bound to SA [4]: approximately 80%
